Read-outs that look alike come from different tables or passages of the source.
Assays:
[1] = test system: H460 (human non-small cell lung carcinoma); experiment: MTT growth inhibition assay, H460; format: cell-based
Description: (§1) Target compounds 12a–t were evaluated for in vitro cytotoxicity against four human tumor cell lines, including H460 (non-small cell lung carcinoma), HeLA (human cervical carcinoma), EC9706 (human esophageal squamous cell carcinoma), and T24 (human bladder carcinoma), using HaCaT (human immortalized epidermal cells) as a human non-malignant cell line. Etoposide (3) was included as a positive control. The screening procedure was based on the 3-(4, 5-dimethylthiazol-2-yl)-2, 5-diphenyltetrazoliun bromide (MTT) growth inhibition assay with triplicate experiments, and the results are summarized in Table 1.
(§2) The four human cancer cell lines and a normal human epidermal cell line of the screening panel, including H460 (human non-small cell lung carcinoma), HeLA (human cervical carcinoma), EC9706 (human esophageal squamous cell carcinoma), T24 (human bladder carcinoma), and HaCaT (human immortalized epidermal cells), were purchased from American Type Culture Collection (ATCC, Manassas, VA, U.S.A.). H460, EC9706, and T24 were maintained in RPMI 1640 medium containing 10% Fetal Bovine Serum, 100 units/ml penicillin, 100 μg/ml streptomycin under humidified incubator with 5% CO2 atmosphere at 37°C. HeLA and HaCaT were maintained in Dulbecco′s […] (DMEM) supplemented with 10% Fetal Bovine Serum 100 units/ml penicillin, 100 μg/ml streptomycin in a humidified incubator and 5% CO2 atmosphere at 37°C. Logarithmically growing cells were used for the following experiments.
(§3) The cytotoxicity of the synthesized compounds 12a–t against a panel of human cell lines was determined by the 3-(4,5-dimethylthiazol-2-yl)-2,5-diphenyltetrazoliun bromide (MTT) growth inhibition assay. The five human cell lines were, respectively, plated in 96-well-culture plates at the density of 1 × 10^5 cells per well and incubated for 24 h. Cells were exposed to different concentrations of synthetic podophyllotoxin derivatives for 48 h. MTT was added with a dose of 5 mg/mL in phosphate-buffered saline. After incubation for 4 h at 37°C, the purple formazan crystals were dissolved with […] dimethyl sulfoxide and the absorbance was measured at 570 nm in an ELISA reader. Antiproliferative activity was expressed using the IC50 value defined as the concentration of synthetic podophyllotoxin derivatives inhibiting cell proliferation by 50%. The cell viability ratio was calculated by the following formula: cell viability ratio (%) = OD treated /OD control × 100% (Ma et al., [2014]).

[2] = test system: HaCaT (human immortalized epidermal cells); experiment: MTT growth inhibition assay, HaCaT normal cells; format: cell-based; conditions: 48 h
Description: as §1, §2, §3

[3] = test system: HeLA (human cervical carcinoma); experiment: MTT growth inhibition assay, HeLA; format: cell-based; conditions: 48 h
Description: as §1, §2, §3

[4] = test system: T24 (human bladder carcinoma); experiment: MTT growth inhibition assay, T24; format: cell-based; conditions: T24, 48 h
Description: as §1, §2, §3

[5] = test system: EC9706 (human esophageal squamous cell carcinoma); experiment: MTT growth inhibition assay, EC9706; format: cell-based
Description: as §1, §2, §3

[6] = test system: four human cancer cell lines (EC-9706, HeLA, T-24 and H460) and a normal human epidermal cell line (HaCaT); experiment: MTT growth inhibition assay, whole cell line panel; format: cell-based; conditions: read-out: IC50 values across the cell lines
Description: as §1, with “1. […]” for “1.”
The cytotoxicity of the synthesized compounds 12a–t against a panel of human cell lines was determined by the 3-(4,5-dimethylthiazol-2-yl)-2,5-diphenyltetrazoliun bromide (MTT) growth inhibition assay. […] After incubation for 4 h at 37°C, the purple formazan crystals were dissolved with […] dimethyl sulfoxide and the absorbance was measured at 570 nm in an ELISA reader. […] The cell viability ratio was calculated by the following formula: cell viability ratio (%) = OD treated /OD control × 100% (Ma et al., [2014]).

[7] = NCI-H460, 48 h, read-out: IC50 (μM) H460
[8] = read-out: IC50 (μM) HaCaT, MTT, 48 h, n = 3, normal cell line
[9] = Homo sapiens, read-out: IC50 (μM) HeLA, MTT, 48 h, n = 3
[10] = read-out: IC50 (μM) T24, MTT, 48 h, n = 3
[11] = EC9706, 48 h, read-out: IC50 (μM) EC9706

| SMILES | IC50 [1, 7] [µM] | IC50 [2, 8] [µM] | IC50 [3, 9] [µM] | IC50 [4, 10] [µM] | IC50 [5, 11] [µM] | melting point [°C] | IC50 [6] [µM] | IC50 ([3]; read-out: IC50 (μM) HeLA, MTT, n = 3) [µM] | IC50 ([1]; NCI-H460, MTT, 48 h, n = 3, read-out: IC50 (μM) H460) [µM] | IC50 ([2]; MTT, n = 3, normal cell line, read-out: IC50 (μM) HaCaT) [µM] | IC50 ([6]; MTT, span over the cell line panel) [µM] | IC50 ([3]; Homo sapiens, MTT, n = 3, read-out: IC50 (μM) HeLA) [µM] | IC50 ([4]; MTT, 48 h, n = 3, read-out: IC50 (μM) T24) [µM] | IC50 ([5]; EC9706, MTT, 48 h, n = 3, read-out: IC50 (μM) EC9706) [µM] |
| --- | --- | --- | --- | --- | --- | --- | --- | --- | --- | --- | --- | --- | --- | --- |
| COc1cc([C@@H]2c3cc4c(cc3[C@@H](NC(=O)CN3CCCC3)[C@H]3COC(=O)[C@H]23)OCO4)cc(OC)c1O [Compound 12a] | 9.61 ± 0.22 | 18.2 ± 1.28 | 12.7 ± 1.38 | > 50 | > 50 | 113 to 116 |  |  |  |  |  |  |  |  |
| COc1cc([C@@H]2c3cc4c(cc3[C@@H](NC(=O)CN3CCCCC3)[C@H]3COC(=O)[C@H]23)OCO4)cc(OC)c1O [Compound 12b] | 5.91 ± 0.65 | 5.17 ± 0.36 | 5.72 ± 0.74 | > 50 | > 50 | 107 to 110 |  |  |  |  |  |  |  |  |
| COc1cc([C@@H]2c3cc4c(cc3[C@@H](NC(=O)CN3CCCCC3)[C@H]3COC(=O)[C@H]23)OCO4)cc(OC)c1OC [Compound 12c] | > 50 | 1.89 ± 0.27 | > 50 | > 50 | > 50 | 229 to 231 |  |  |  |  |  |  |  |  |
| COc1cc([C@@H]2c3cc4c(cc3[C@@H](NC(=O)CN3CCOCC3)[C@H]3COC(=O)[C@H]23)OCO4)cc(OC)c1O [Compound 12d, 4β-N-[2′′-(morpholino)-acetamide]-4′-demethylpodophyllotoxin] | > 50 | > 50 | > 50 | > 50 | > 50 | 109 to 111 |  |  |  |  |  |  |  |  |
| COc1cc([C@@H]2c3cc4c(cc3[C@@H](NC(=O)CN3CCOCC3)[C@H]3COC(=O)[C@H]23)OCO4)cc(OC)c1OC [Compound 12e, 4β-N-[(2′′-morpholino)-acetamide]-podophyllotoxin] | > 50 | > 50 | > 50 | > 50 | > 50 | 119 to 121 |  |  |  |  |  |  |  |  |
| CCCNCC(=O)N[C@@H]1c2cc3c(cc2[C@@H](c2cc(OC)c(O)c(OC)c2)[C@H]2C(=O)OC[C@@H]21)OCO3 [Compound 12f] | 2.54 ± 0.34 | 2.59 ± 0.13 | 23.9 ± 1.04 | 18.6 ± 1.57 | 11.7 ± 0.26 | 199 to 202 |  |  |  |  |  |  |  |  |
| CCCCNCC(=O)N[C@@H]1c2cc3c(cc2[C@@H](c2cc(OC)c(O)c(OC)c2)[C@H]2C(=O)OC[C@@H]21)OCO3 [Compound 12h] | 1.57 ± 0.37 | 1.54 ± 0.29 | 1.21 ± 0.31 | 12.1 ± 1.28 | 22.8 ± 0.32 | 115 to 118 | 1.2 to 22.8 |  |  |  |  |  |  |  |
| CCCCNCC(=O)N[C@@H]1c2cc3c(cc2[C@@H](c2cc(OC)c(OC)c(OC)c2)[C@H]2C(=O)OC[C@@H]21)OCO3 [Compound 12i] | 37.8 ± 1.01 | > 50 | > 50 | > 50 | > 50 | 92 to 95 |  |  |  |  |  |  |  |  |
| CCN(CC)CC(=O)N[C@@H]1c2cc3c(cc2[C@@H](c2cc(OC)c(O)c(OC)c2)[C@H]2C(=O)OC[C@@H]21)OCO3 [Compound 12k] | > 50 | > 50 | 45.8 ± 0.71 | > 50 | > 50 | 106 to 108 |  |  |  |  |  |  |  |  |
| COc1cc([C@@H]2c3cc4c(cc3[C@@H](NC(=O)CN(CCO)CCO)[C@H]3COC(=O)[C@H]23)OCO4)cc(OC)c1O [Compound 12l] | > 50 | 4.21 ± 0.17 | > 50 | > 50 | > 50 | 212 to 214 |  |  |  |  |  |  |  |  |
| COc1cc([C@@H]2c3cc4c(cc3[C@@H](NC(=O)CN(CCO)CCO)[C@H]3COC(=O)[C@H]23)OCO4)cc(OC)c1OC [Compound 12m] | > 50 | > 50 | 36.4 ± 0.49 | > 50 | > 50 | 105 to 107 |  |  |  |  |  |  |  |  |
| COc1cc([C@@H]2c3cc4c(cc3[C@@H](NC(=O)CNCc3ccccc3)[C@H]3COC(=O)[C@H]23)OCO4)cc(OC)c1O [Compound 12n] | 16.5 ± 0.39 | 13.3 ± 0.8 | 6.26 | > 50 | 40.1 ± 2.43 | 141 to 143 |  | 6.25 ± 0.21 |  |  |  |  |  |  |
| COc1cc([C@@H]2c3cc4c(cc3[C@@H](NC(=O)CNCc3ccccc3)[C@H]3COC(=O)[C@H]23)OCO4)cc(OC)c1OC [Compound 12o] | 26.9 ± 0.92 | 2.14 ± 0.33 | 8.55 ± 0.28 | > 50 | 11.3 ± 0.22 | 111 to 113 |  |  |  |  |  |  |  |  |
| COc1cc([C@@H]2c3cc4c(cc3[C@@H](NC(=O)CNc3ccc(F)cc3)[C@H]3COC(=O)[C@H]23)OCO4)cc(OC)c1O [Compound 12p] | 9.75 ± 0.26 | > 50 | > 50 | > 50 | > 50 | 159 to 162 |  |  |  |  |  |  |  |  |
| COc1ccc(CCNCC(=O)N[C@@H]2c3cc4c(cc3[C@@H](c3cc(OC)c(O)c(OC)c3)[C@H]3C(=O)OC[C@@H]32)OCO4)cc1OC [Compound 12q] | 3.43 ± 0.17 | 3.69 ± 0.19 | 4.57 ± 0.3 | > 50 | 20.7 ± 0.72 | 229 to 231 |  |  |  |  |  |  |  |  |
| COc1ccc(CCNCC(=O)N[C@@H]2c3cc4c(cc3[C@@H](c3cc(OC)c(OC)c(OC)c3)[C@H]3C(=O)OC[C@@H]32)OCO4)cc1OC [Compound 12r] | > 50 | > 50 | > 50 | > 50 | > 50 | 106 to 108 |  |  |  |  |  |  |  |  |
| COc1cc([C@@H]2c3cc4c(cc3[C@@H](NC(=O)CNCCc3ccc(O)cc3)[C@H]3COC(=O)[C@H]23)OCO4)cc(OC)c1O [Compound 12s] | 5.94 ± 0.18 | 8.67 ± 0.72 | 2.27 ± 0.26 | 12.7 ± 0.73 | 14.3 ± 0.69 | 234 to 236 |  |  |  |  |  |  |  |  |
| COc1cc([C@@H]2c3cc4c(cc3[C@@H](NC(=O)CNCCc3ccc(O)cc3)[C@H]3COC(=O)[C@H]23)OCO4)cc(OC)c1OC [Compound 12t] | 42.1 ± 1.21 | > 50 | > 50 | > 50 | > 50 | 116 to 119 |  |  |  |  |  |  |  |  |
| COc1cc([C@@H]2c3cc4c(cc3[C@@H](O[C@@H]3O[C@@H]5CO[C@@H](C)O[C@H]5[C@H](O)[C@H]3O)[C@H]3COC(=O)[C@H]23)OCO4)cc(OC)c1O [Etoposide, etoposide, reference compound] |  |  |  |  |  |  |  |  | 43.2 ± 1.45 | 48.7 ± 1.69 | 8.4 to 78.2 | 3.12 ± 0.35 | 8.43 ± 0.33 | > 50 |

— PMC6491884, “Synthesis and Biological Evaluation of 4β-N-Acetylamino Substituted Podophyllotoxin Derivatives as Novel Anticancer Agents” (Frontiers in Chemistry, 2019)
